Molecules are shown by their SMILES. “And” between values parts separate entries of the source, which are not always exact repeats. Identical values can stand only once.

A short description of the data set: Stability testing of steroids and NSAIDS combined with 0.6% povidone iodine at room temperature. On the procedure:
Steroids and NSAIDS were mixed with PVP-I at the concentration of 0.6% w/w on Day 1. The resultant mixtures will be split to glass vials and stored at room temperature. fluorometholone alcohol, medrysone, prednisone sodium phosphate, rimexolone, hydrocortisone, hydrocortisone acetate, lodoxamide tromethamine, nepafenac, bromfenac, and ketorolac. Testing timepoints included day 0 (Time Zero), and week 4. Tests were conducted at room temperature. The testing samples were analyzed using liquid chromatography and tandem mass spectrometry (LC/MS/MS) methods at Day 0, and Week 4. The steroids and NSAIDS standards were also analyzed and steroids and NSAIDS levels in testing samples were determined.
For Tables VIII-XIII, a: Nominal concentration in HPLC samples; b: Calculated concentration in HPLC samples; c: Dilution factor; d: Calculated concentration in stability samples; e: Spiked 50 μL of H2O and stored at room temperature without PVP-I.

Where [1] appears, read: Day 0, room temperature, 0.6% PVP-I, mean of replicates.
The mark [2] stands for this setting: Day 0, room temperature, 0.6% PVP-I, single replicates.
The mark [3] stands for this setting: four weeks control, spiked 50 μL of H2O, room temperature without PVP-I.
Setting [4] is: four weeks, room temperature, 0.6% PVP-I, mean of replicates.
[5] abbreviates: four weeks, room temperature, 0.6% PVP-I, single replicates.

Turning to `Nc1c(CC(=O)O)cccc1C(=O)c1ccc(Br)cc1` [Bromfenac, bromfenac], the “% of Std” value is 98.86% under setting [1]; 99.74% and 97.96% under setting [2]; 100.03% under setting [3]; 98.23% under setting [4]; 98.87% and 97.6% under setting [5]. In addition, the “% of Day 0” value is, setting by setting: under setting [3], 101.19%; under setting [4], 99.37%; under setting [5], 100.01% and 98.73%.
As for `CC(=O)[C@@]1(O)CC[C@H]2[C@@H]3C[C@H](C)C4=CC(=O)C=C[C@]4(C)[C@@]3(F)[C@@H](O)C[C@@]21C` [Fluorometholone, fluorometholone], the “% of Std” value was 101.28% under setting [1]; 101.42% and 101.14% under setting [2]; 99.22% under setting [3]; 99.7% under setting [4]; 99.28% and 100.14% under setting [5]. The “% of Day 0” value runs as follows: under setting [3], 97.97%; under setting [4], 98.44%; under setting [5], 98.03% and 98.87%.
Consider `CC(=O)OCC(=O)[C@@]1(O)CC[C@H]2[C@@H]3CCC4=CC(=O)CC[C@]4(C)[C@H]3[C@@H](O)C[C@@]21C` [Hydrocortisone acetate, hydrocortisone acetate], for which the “% of Std” value was 100.57% under setting [1]; 101.62% and 99.52% under setting [2]; 101.66% under setting [3]; 101.53% under setting [4]; 101.15% and 101.91% under setting [5]. For the same molecule, the “% of Day 0” value is 101.08% under setting [3]; 100.95% under setting [4]; 100.58% and 101.33% under setting [5].
In the case of `NC(=O)Cc1cccc(C(=O)c2ccccc2)c1N` [Nepafenac, nepafenac], the “% of Std” value by setting is: under setting [1], 98.7%; under setting [2], 98.22% and 99.18%; under setting [3], 98.76%; under setting [4], 95.94%; under setting [5], 96.56% and 95.32%. The “% of Day 0” value is 100.06% under setting [3]; 97.2% under setting [4]; 97.83% and 96.58% under setting [5].
In the case of `C[C@]12C=CC(=O)C=C1CC[C@@H]1[C@@H]2C(=O)C[C@@]2(C)[C@H]1CC[C@]2(O)C(=O)COP(=O)([O-])[O-].[Na+].[Na+]` [Prednisone sodium phosphate, prednisone sodium phosphate], the “% of Std” value was 97.76% under setting [1]; 97.93% and 97.59% under setting [2]; 100.57% under setting [3]; 93.52% under setting [4]; 92.97% and 94.07% under setting [5]. The “% of Day 0” value reads like this: under setting [3], 102.87%; under setting [4], 95.66%; under setting [5], 95.1% and 96.23%.
For `CCC(=O)[C@@]1(C)[C@H](C)C[C@H]2[C@@H]3CCC4=CC(=O)C=C[C@]4(C)[C@H]3[C@@H](O)C[C@@]21C` [Rimexolone, rimexolone], the “% of Std” value was 99.67% under setting [1]; 98.83% and 100.5% under setting [2]; 97.09% under setting [3]; 99.55% under setting [4]; 99.9% and 99.2% under setting [5]. The “% of Day 0” value under setting [3] came out at 97.41%; the “% of Day 0” value under setting [4] is recorded as 99.88%; the “% of Day 0” value under setting [5] was 100.23% and 99.53%.
As for `N#Cc1cc(NC(=O)C(=O)O)c(Cl)c(NC(=O)C(=O)O)c1.NC(CO)(CO)CO.NC(CO)(CO)CO` [lodoxamide, lodoxamide tromethamine], the “stability in PVP-I (result in words)” value (0.6% PVP-I, room temperature, week 4) is reported as “appeared to be stable”.
